# Experimental data from patent US10941157B2, “Pesticidal compositions and uses thereof” (Gilead Apollo, LLC, priority 2015, dated 2021).
# Read-outs that look alike come from different tables or passages of the source.
# Legend:
# Format in all cases: cell-based
# [1] = system: Fusarium virguliforme (Fv); test: In vitro pathogen growth inhibition assay, Fv
# In short: (§1)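 Value reported is the compound concentration reaching ≥90% growth inhibition, from OD readings at 24 and 48 h after blank subtraction, confirmed visually. Inoculum was spores diluted in 17% V8 medium, except Rs, using 1.5 mm mycelial plugs in ¼ PDB; actual compound concentration corrected via OD600.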
# [2] = system: Fusarium moniliforme (Fm); test: In vitro pathogen growth inhibition assay, Fm; conditions: Fusarium verticillioides
# In short: (§2)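 Spores in 17% V8 liquid medium, or 1.5 mm Rs mycelial plugs in ¼ PDB, incubated with compound; final concentration checked by OD600 for precipitation. OD readings at 24 and 48 h, blank-subtracted, plus visual ratings; value is concentration giving ≥90% growth inhibition.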
# [3] = system: Collectotrichum graminicola (Cg); test: In vitro pathogen growth inhibition assay, Cg; conditions: 48 h
# In short: as §2
# Rhizoctonia solani (Rs) = test: In vitro pathogen growth inhibition assay, Rs (mycelial plugs); conditions: Rhizoctonia solani, 48 h
# In short: as §1
# Botrtyis cinerea (Bc) = test: In vitro pathogen growth inhibition assay, Bc; conditions: 48 h
# In short: as §2
# Diplodia maydis (Dm) = test: In vitro pathogen growth inhibition assay, Dm; conditions: Stenocarpella maydis, 48 h
# In short: as §1
# Septoria tritici (St) = test: In vitro pathogen growth inhibition assay, St; conditions: Zymoseptoria tritici, 48 h
# In short: as §2
# [4] = system: Phytophthora capsici (Pc); test: In vitro pathogen growth inhibition assay, Pc; conditions: 48 h
# In short: as §1
# [5] = ≥90% growth inhibition, 48 hours, vs 2% DMSO control, read-out: Compound Concentration (ppm) sufficient for ≥90% inhibition of Fv
# [6] = ≥90% growth inhibition, 48 hours, vs 2% DMSO control, read-out: Compound Concentration (ppm) sufficient for ≥90% inhibition of Fm
# [7] = ≥90% growth inhibition, 48 hours, vs 2% DMSO control, read-out: Compound Concentration (ppm) sufficient for ≥90% inhibition of Cg
# [8] = ≥90% growth inhibition, mycelial plugs, 48 hours, vs 2% DMSO control, read-out: Compound Concentration (ppm) sufficient for ≥90% inhibition of Rs
# [9] = ≥90% growth inhibition, 48 hours, vs 2% DMSO control, read-out: Compound Concentration (ppm) sufficient for ≥90% inhibition of Bc
# [10] = ≥90% growth inhibition, 48 hours, vs 2% DMSO control, read-out: Compound Concentration (ppm) sufficient for ≥90% inhibition of Dm
# [11] = ≥90% growth inhibition, 48 hours, vs 2% DMSO control, read-out: Compound Concentration (ppm) sufficient for ≥90% inhibition of St
# [12] = ≥90% growth inhibition, 48 hours, vs 2% DMSO control, read-out: Compound Concentration (ppm) sufficient for ≥90% inhibition of Pc
# [13] = ≥90% inhibition, 48 hours vs 2% DMSO control, read-out: Compound Concentration (ppm) sufficient for ≥90% inhibition of growth, Fv
# [14] = ≥90% inhibition, 48 hours vs 2% DMSO control, read-out: Compound Concentration (ppm) sufficient for ≥90% inhibition of growth, Fm
# [15] = ≥90% inhibition, 48 hours vs 2% DMSO control, read-out: Compound Concentration (ppm) sufficient for ≥90% inhibition of growth, Cg
# [16] = ≥90% inhibition, mycelial plugs, 48 hours vs 2% DMSO control, read-out: Compound Concentration (ppm) sufficient for ≥90% inhibition of growth, Rs
# [17] = ≥90% inhibition, 48 hours vs 2% DMSO control, read-out: Compound Concentration (ppm) sufficient for ≥90% inhibition of growth, Bc
# [18] = ≥90% inhibition, 48 hours vs 2% DMSO control, read-out: Compound Concentration (ppm) sufficient for ≥90% inhibition of growth, Dm
# [19] = ≥90% inhibition, 48 hours vs 2% DMSO control, read-out: Compound Concentration (ppm) sufficient for ≥90% inhibition of growth, St
# [20] = ≥90% inhibition, 48 hours vs 2% DMSO control, read-out: Compound Concentration (ppm) sufficient for ≥90% inhibition of growth, Pc
# [21] = concentration sufficient to ≥90% inhibition of growth, 48 hours vs 2% DMSO control, read-out: Compound Concentration (ppm) for ≥90% inhibition, Fv
# [22] = concentration sufficient to ≥90% inhibition of growth, 48 hours vs 2% DMSO control, read-out: Compound Concentration (ppm) for ≥90% inhibition, Fm
# [23] = concentration sufficient to ≥90% inhibition of growth, 48 hours vs 2% DMSO control, read-out: Compound Concentration (ppm) for ≥90% inhibition, Cg
# [24] = concentration sufficient to ≥90% inhibition of growth, 48 hours vs 2% DMSO control, read-out: Compound Concentration (ppm) for ≥90% inhibition, Rs
# [25] = concentration sufficient to ≥90% inhibition of growth, 48 hours vs 2% DMSO control, read-out: Compound Concentration (ppm) for ≥90% inhibition, Bc
# [26] = concentration sufficient to ≥90% inhibition of growth, 48 hours vs 2% DMSO control, read-out: Compound Concentration (ppm) for ≥90% inhibition, Dm
# [27] = concentration sufficient to ≥90% inhibition of growth, 48 hours vs 2% DMSO control, read-out: Compound Concentration (ppm) for ≥90% inhibition, St
# [28] = concentration sufficient to ≥90% inhibition of growth, 48 hours vs 2% DMSO control, read-out: Compound Concentration (ppm) for ≥90% inhibition, Pc
Compound,"IC90 [1, 5] [µg/mL]","IC90 [2, 6] [µg/mL]","IC90 [3, 7] [µg/mL]",IC90 (Rhizoctonia solani (Rs); [8]) [µg/mL],IC90 (Botrtyis cinerea (Bc); [9]) [µg/mL],IC90 (Diplodia maydis (Dm); [10]) [µg/mL],IC90 (Septoria tritici (St); [11]) [µg/mL],"IC90 [4, 12] [µg/mL]","IC90 [1, 13] [µg/mL]","IC90 [2, 14] [µg/mL]","IC90 [3, 15] [µg/mL]",IC90 (Rhizoctonia solani (Rs); [16]) [µg/mL],IC90 (Botrtyis cinerea (Bc); [17]) [µg/mL],IC90 (Diplodia maydis (Dm); [18]) [µg/mL],IC90 (Septoria tritici (St); [19]) [µg/mL],"IC90 [4, 20] [µg/mL]",further results
CCOC(=O)c1sc2c(c1C)c(=O)n(C(C)(C)C(=O)N1CCCC1)c(=O)n2C[C@H](OCCOC)c1cc(F)ccc1OC [Compound I-179],> 2,0.4,≥ 2,10,2,10,> 50,> 50,,,,,,,,,
COc1ccc(F)cc1[C@@H](O)Cn1c(=O)n([C@H](C)C(=O)N2CCCC2)c(=O)c2c(C)c(-n3nccn3)sc21 [Compound I-222],0.4,0.4,2,0.4,2,10,50,> 50,,,,,,,,,
CCOC(=O)c1sc2c(c1C)c(=O)n(C(C)(C)C(=O)NC(C)C)c(=O)n2CCc1cc(F)ccc1OC [Compound I-298],2,2,10,> 50,2,≥ 10,> 50,> 50,,,,,,,,,
COc1ccc(F)cc1[C@H](Cn1c(=O)n(C(C)(C)C(N)=O)c(=O)c2c(C)c(-n3cccn3)sc21)O[C@H]1CC[C@@H](O)CC1 [Compound I-150],,,,,,,,,10,2,50,10,2,≥ 10,> 50,> 50,
C=CCO[C@@H](Cn1c(=O)n(C(C)(C)C(=O)NC(C)C)c(=O)c2c(C)c(-n3nccn3)sc21)c1cc(F)ccc1OC [Compound I-077],,,,,,,,,0.4,0.08,2,0.4,2,2,> 50,> 50,
CCOC(=O)c1sc2c(c1C)c(=O)n([C@H](C)C(N)=O)c(=O)n2C[C@H](OCCC#N)c1cc(F)ccc1OC [Compound I-228],,,,,,,,,,,,,,,,,"IC90 [1, 21]: > 50 µg/mL; IC90 [2, 22]: 10 µg/mL; IC90 [3, 23]: > 50 µg/mL; IC90 (Rhizoctonia solani (Rs); [24]): 2 µg/mL; IC90 (Botrtyis cinerea (Bc); [25]): 10 µg/mL; IC90 (Diplodia maydis (Dm); [26]): > 50 µg/mL; IC90 (Septoria tritici (St); [27]): > 50 µg/mL; IC90 [4, 28]: > 50 µg/mL"
COc1ccc(F)cc1[C@H](Cn1c(=O)n(CC(=O)NC(C)C)c(=O)c2c(C)c(-n3nccn3)sc21)OC(C)C [Compound I-060],,,,,,,,,0.4,0.08,> 50,≥ 2,0.4,0.4,> 50,> 50,
Cc1c(-n2cccn2)sc2c1c(=O)n(C(C)(C)C(=O)NC(C)C)c(=O)n2CCc1cc(F)ccc1OCCO [Compound I-337],,,,,,,,,,,,,,,,,"IC90 [1, 21]: 10 µg/mL; IC90 [2, 22]: 10 µg/mL; IC90 [3, 23]: > 50 µg/mL; IC90 (Rhizoctonia solani (Rs); [24]): 10 µg/mL; IC90 (Botrtyis cinerea (Bc); [25]): 50 µg/mL; IC90 (Diplodia maydis (Dm); [26]): > 50 µg/mL; IC90 (Septoria tritici (St); [27]): > 50 µg/mL; IC90 [4, 28]: > 50 µg/mL"
COc1ccc(F)cc1[C@H](Cn1c(=O)n(C(C)(C)C(=O)NC(C)C)c(=O)c2c(C)c(-n3nccn3)sc21)OCC(C)(C)O [Compound I-072],,,,,,,,,0.4,0.08,≥ 0.08,≥ 0.4,2,0.4,≥ 2,10,
COc1ccc(F)cc1[C@H](Cn1c(=O)n(C(C)(C)C(=O)N2CCCCC2)c(=O)c2c(C)c(-n3nccn3)sc21)OC1CCOCC1 [Compound I-036],,,,,,,,,0.4,0.08,0.08,0.08,0.4,≥ 0.08,≥ 2,> 50,
